This note sets out measurements from patent publication US10590140B2, “Tetrahydropyrimidodiazepine and dihydropyridodiazepine compounds for treating pain and pain related conditions” (ESTEVE PHARMACEUTICALS, S.A., priority 2016, dated 2020).

Molecules are shown by their SMILES. Where only a bound is given, the exact number is not on record here.

Sequence of human α2δ-1 subunit of Cav2.2 calcium channel (P54289 25-1103): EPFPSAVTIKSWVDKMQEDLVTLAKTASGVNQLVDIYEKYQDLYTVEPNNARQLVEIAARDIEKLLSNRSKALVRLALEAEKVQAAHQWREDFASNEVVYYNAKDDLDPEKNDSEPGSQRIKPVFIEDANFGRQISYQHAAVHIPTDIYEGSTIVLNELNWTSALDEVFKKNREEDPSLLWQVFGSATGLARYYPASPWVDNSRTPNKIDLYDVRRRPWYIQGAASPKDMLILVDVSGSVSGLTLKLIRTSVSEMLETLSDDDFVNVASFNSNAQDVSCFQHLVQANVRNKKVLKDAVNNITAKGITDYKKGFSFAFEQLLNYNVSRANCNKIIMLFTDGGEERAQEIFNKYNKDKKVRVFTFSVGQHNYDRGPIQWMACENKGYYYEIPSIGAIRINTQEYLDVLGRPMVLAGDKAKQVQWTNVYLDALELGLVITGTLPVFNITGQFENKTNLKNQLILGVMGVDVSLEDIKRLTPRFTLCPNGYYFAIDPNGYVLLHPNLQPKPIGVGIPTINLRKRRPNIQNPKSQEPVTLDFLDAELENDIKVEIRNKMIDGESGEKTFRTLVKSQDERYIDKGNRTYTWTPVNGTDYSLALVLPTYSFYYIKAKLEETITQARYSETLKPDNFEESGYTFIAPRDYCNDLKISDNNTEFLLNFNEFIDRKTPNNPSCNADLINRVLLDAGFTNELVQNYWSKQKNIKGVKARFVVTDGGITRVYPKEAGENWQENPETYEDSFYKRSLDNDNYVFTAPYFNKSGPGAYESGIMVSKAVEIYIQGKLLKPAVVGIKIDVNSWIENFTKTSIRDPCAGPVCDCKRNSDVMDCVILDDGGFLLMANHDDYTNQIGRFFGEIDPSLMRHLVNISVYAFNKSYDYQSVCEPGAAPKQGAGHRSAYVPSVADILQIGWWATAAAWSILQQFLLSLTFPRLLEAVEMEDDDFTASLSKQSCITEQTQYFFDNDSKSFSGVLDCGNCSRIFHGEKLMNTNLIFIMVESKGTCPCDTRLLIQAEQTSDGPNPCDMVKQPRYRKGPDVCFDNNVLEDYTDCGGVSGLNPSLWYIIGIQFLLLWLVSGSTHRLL

One experiment addresses human α2δ-1 subunit of Cav2.2 calcium channel (Homo sapiens (Human), UniProt P54289). Nature of the experiment: Binding assay to human α2δ-1 subunit of Cav2.2 calcium channel ([3H]-Gabapentin).
Details: not given
A digest of the protocol:
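Radioactivity on dried GF/C filters quantified by scintillation after filtration and three cold Tris-HCl (pH 7.4) washes. Incubation ran 60 min at 27° C with [3H]-gabapentin; 10 μM pregabalin gave nonspecific binding.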
Turning to `CCNc1ncc2c(n1)N(C)CCN(c1cccc(-n3cc(CN4CCC(c5cccc(O)c5)(N(C)C)CC4)nn3)c1)C2=O` [Example 293, 6-(3-(4-((4-(dimethylamino)-4-(3-hydroxyphenyl)piperidin-1-yl)methyl)-1H-1,2,3-triazol-1-yl)phenyl)-2-(ethylamino)-9-methyl-6,7,8,9-tetrahydro-5H-pyrimido[4,5-e] [1,4]diazepin-5-one], the Ki fell in the range of 100 to 500 nM.

Staying with this experiment, now noted: binding to α2δ-1, [3H]-Gabapentin; read-out: Ki (nM) α2δ-1.
Turning to `CCNc1ncc2c(n1)N(C)CCN(c1cccc(OCCCN(C)CCc3ccccc3)c1)C2=O` [Example 258, 2-(ethylamino)-9-methyl-6-(3-(3-(methyl(phenethyl)amino)propoxy)phenyl)-6,7,8,9-tetrahydro-5H-pyrimido[4,5-e][1,4]diazepin-5-one], the Ki fell in the range of 500 to 3000 nM. Still for that read-out and setting: as for `CCNc1ncc2c(n1)N(C)CCN(c1cccc(C3CCN(Cc4ccccc4)CC3)c1)C2=O` [Example 259, 6-(3-(1-benzylpiperidin-4-yl)phenyl)-2-(ethylamino)-9-methyl-6,7,8,9-tetrahydro-5H-pyrimido[4,5-e][1,4]diazepin-5-one], the figure is 100 to 500 nM. On the same count and under the same terms, the same measure for `CCNc1ncc2c(n1)N(C)CCN(c1cccc(C3CCN(C)CC3)c1)C2=O` [Example 260, 2-(ethylamino)-9-methyl-6-(3-(1-methylpiperidin-4-yl)phenyl)-6,7,8,9-tetrahydro-5H-pyrimido[4,5-e][1,4]diazepin-5-one]: 100 to 500 nM; for `CCNc1ncc2c(n1)N(C)CCN(c1cccc(OC(C)CN(C)Cc3ccccc3)c1)C2=O` (centres unmarked) [Example 262, 6-(3-((1-(benzyl(methyl)amino)propan-2-yl)oxy)phenyl)-2-(ethylamino)-9-methyl-6,7,8,9-tetrahydro-5H-pyrimido[4,5-e][1,4]diazepin-5-one]: 500 to 3000 nM; for `CCNc1ncc2c(n1)N(C)CCN(c1cccc(OC(C)CN(C)CCc3ccccc3)c1)C2=O` (centres unmarked) [Example 263, 2-(ethylamino)-9-methyl-6-(3-((1-(methyl(phenethyl)amino)propan-2-yl)oxy)phenyl)-6,7,8,9-tetrahydro-5H-pyrimido[4,5-e][1,4]diazepin-5-one]: 500 to 3000 nM. Take `CCNc1ncc2c(n1)N(C)CCN(c1cccc(OC3CCN(Cc4ccccc4)C3)c1)C2=O` (centres unmarked) [Example 266, 6-(3-((1-benzylpyrrolidin-3-yl)oxy)phenyl)-2-(ethylamino)-9-methyl-6,7,8,9-tetrahydro-5H-pyrimido[4,5-e][1,4]diazepin-5-one]: the Ki was 100 to 500 nM. In the case of `CCNc1ncc2c(n1)N(C)CCN(c1cccc(OC(CN(C)Cc3ccccc3)C(C)C)c1)C2=O` (centres unmarked) [Example 267, 6-(3-((1-(benzyl(methyl)amino)-3-methylbutan-2-yl)oxy)phenyl)-2-(ethylamino)-9-methyl-6,7,8,9-tetrahydro-5H-pyrimido[4,5-e][1,4]diazepin-5-one], the Ki is 500 to 3000 nM. Take `CCNc1ncc2c(n1)N(C)CCN(c1cccc(OC(CN(C)CCc3ccccc3)C(C)C)c1)C2=O` (centres unmarked) [Example 268, 2-(ethylamino)-9-methyl-6-(3-((3-methyl-1-(methyl(phenethyl)amino)butan-2-yl)oxy)phenyl)-6,7,8,9-tetrahydro-5H-pyrimido[4,5-e][1,4]diazepin-5-one]: the Ki was 500 to 3000 nM.

`CCNc1ncc2c(n1)N(C)CCN(c1cccc(CCN(C)Cc3ccccc3)c1)C2=O` [Example 269, 6-(3-(2-(benzyl(methyl)amino)ethyl)phenyl)-2-(ethylamino)-9-methyl-6,7,8,9-tetrahydro-5H-pyrimido[4,5-e][1,4]diazepin-5-one]: the Ki fell in the range of 100 to 500 nM. For `CCNc1ncc2c(n1)N(C)CCN(c1cccc(CCN(C)CCc3ccccc3)c1)C2=O` [Example 270, 2-(ethylamino)-9-methyl-6-(3-(2-(methyl(phenethyl)amino)ethyl)phenyl)-6,7,8,9-tetrahydro-5H-pyrimido[4,5-e][1,4]diazepin-5-one], the inhibition constant Ki is 100 to 500 nM. In the case of `CCNc1ncc2c(n1)N(C)CCN(c1cccc(COC3(c4ccccc4)CCN(C)CC3)c1)C2=O` [Example 272, 2-(ethylamino)-9-methyl-6-(3-(((1-methyl-4-phenylpiperidin-4-yl)oxy)methyl)phenyl)-6,7,8,9-tetrahydro-5H-pyrimido[4,5-e][1,4]diazepin-5-one], the Ki is 500 to 3000 nM. On the same count and under the same terms, the same measure for `CCNc1ncc2c(n1)N(C)CCN(c1cccc(-n3cc(CN(C)CCOCCO)nn3)c1)C2=O` [Example 273, 2-(ethylamino)-6-(3-(4-(((2-(2-hydroxyethoxy)ethyl) (methyl)amino)methyl)-1H-1,2,3-triazol-1-yl)phenyl)-9-methyl-6,7,8,9-tetrahydro-5H-pyrimido[4,5-e][1,4]diazepin-5-one]: 500 to 3000 nM; for `CCNc1ncc2c(n1)N(C)CCN(c1cccc(CCOS(=O)(=O)c3ccc(C)cc3)c1)C2=O` [Example 274, 3-(2-(Ethylamino)-9-methyl-5-oxo-5,7,8,9-tetrahydro-6H-pyrimido[4,5-e][1,4]diazepin-6-yl)phenethyl 4-methylbenzenesulfonate]: more than 3000 nM; for `CCNc1ncc2c(n1)N(C)CCN(c1cccc(CCN3CCC4(CC3)CN(C(C)C)C(=O)[C@@H](C)O4)c1)C2=O` [Example 276, (R)-9-(3-(2-(ethylamino)-9-methyl-5-oxo-5,7,8,9-tetrahydro-6H-pyrimido[4,5-e][1,4]diazepin-6-yl)phenethyl)-4-isopropyl-2-methyl-1-oxa-4,9-diazaspiro[5.5]undecan-3-one]: 100 to 500 nM. Same read-out and setting: the same measure for `CCNc1ncc2c(n1)N(C)CCN(c1cccc(-n3cc(CN4CCN(c5ccccc5)CC4)nn3)c1)C2=O` [Example 280, 2-(ethylamino)-9-methyl-6-(3-(4-((4-phenylpiperazin-1-yl)methyl)-1H-1,2,3-triazol-1-yl)phenyl)-6,7,8,9-tetrahydro-5H-pyrimido[4,5-e] [1,4]diazepin-5-one]: 100 to 500 nM; for `CCNc1ncc2c(n1)N(C)CCN(c1cccc(-n3cc(CN4CCc5ccccc5C4)nn3)c1)C2=O` [Example 282, 6-(3-(4-((3,4-dihydroisoquinolin-2(1H)-yl)methyl)-1H-1,2,3-triazol-1-yl)phenyl)-2-(ethylamino)-9-methyl-6,7,8,9-tetrahydro-5H-pyrimido[4,5-e] [1,4]diazepin-5-one]: 500 to 3000 nM. On the same count and under the same terms, the same measure for `CCNc1ncc2c(n1)N(C)CCN(c1cccc(-n3cc(CN4CCC5(CC4)NCCc4ccccc45)nn3)c1)C2=O` [Example 283, 6-(3-(4-((3,4-dihydro-2H-spiro[isoquinoline-1,4′-piperidin]-1′-yl)methyl)-1H-1,2,3-triazol-1-yl)phenyl)-2-(ethylamino)-9-methyl-6,7,8,9-tetrahydro-5H-pyrimido[4,5-e] [1,4]diazepin-5-one]: 100 to 500 nM; for `CCNc1ncc2c(n1)N(C)CCN(c1cccc(-n3cc(CN4CCC5(CC4)CN(C(C)C)C(=O)[C@@H](C)O5)nn3)c1)C2=O` [Example 284, (R)-9-((1-(3-(2-(ethylamino)-9-methyl-5-oxo-5,7,8,9-tetrahydro-6H-pyrimido[4,5-e] [1,4]diazepin-6-yl)phenyl)-1H-1,2,3-triazol-4-yl)methyl)-4-isopropyl-2-methyl-1-oxa-4,9-diazaspiro[5.5] undecan-3-one]: 100 to 500 nM; for `CCNCc1cn(-c2cccc(N3CCN(C)c4nc(NCC)ncc4C3=O)c2)nn1` [Example 286, 2-(ethylamino)-6-(3-(4-((ethylamino)methyl)-1H-1,2,3-triazol-1-yl)phenyl)-9-methyl-6,7,8,9-tetrahydro-5H-pyrimido[4,5-e] [1,4]diazepin-5-one]: 100 to 500 nM. Regarding `CCNc1ncc2c(n1)N(C)CCN(c1cccc(-n3cc(CNCCOCCO)nn3)c1)C2=O` [Example 290, 2-(ethylamino)-6-(3-(4-(((2-(2-hydroxyethoxy)ethyl)amino)methyl)-1H-1,2,3-triazol-1-yl)phenyl)-9-methyl-6,7,8,9-tetrahydro-5H-pyrimido[4,5-e] [1,4]diazepin-5-one], the inhibition constant Ki lay within 100 to 500 nM. On the same count and under the same terms, the same measure for `CCNc1ncc2c(n1)N(C)CCN(c1cccc(-n3cc(CN4CCC(c5ccccc5)(N(C)C)CC4)nn3)c1)C2=O` [Example 291, 6-(3-(4-((4-(dimethylamino)-4-phenylpiperidin-1-yl)methyl)-1H-1,2,3-triazol-1-yl)phenyl)-2-(ethylamino)-9-methyl-6,7,8,9-tetrahydro-5H-pyrimido[4,5-e] [1,4]diazepin-5-one]: 100 to 500 nM; for `CCNc1ncc2c(n1)N(C)CCN(c1cccc(CN3CCC(c4ccccc4)(N(C)C)CC3)c1)C2=O` [Example 292, 6-(3-((4-(dimethylamino)-4-phenylpiperidin-1-yl)methyl)phenyl)-2-(ethylamino)-9-methyl-6,7,8,9-tetrahydro-5H-pyrimido[4,5-e] [1,4]diazepin-5-one]: 500 to 3000 nM.

On to `CCNc1ncc2c(n1)N(C)CCN(c1cccc(-n3cc(CN4CCC(c5ccccc5)(N(C)C)CC4)cn3)c1)C2=O` [Example 294, 6-(3-(4-((4-(dimethylamino)-4-phenylpiperidin-1-yl)methyl)-1H-pyrazol-1-yl)phenyl)-2-(ethylamino)-9-methyl-6,7,8,9-tetrahydro-5H-pyrimido[4,5-e] [1,4]diazepin-5-one], for which the inhibitory constant (Ki) is 500 to 3000 nM. Still for that read-out and setting: as for `CCNc1ncc2c(n1)N(C)CCN(c1cccc(-n3cc(CN4CCC(c5cccc(O)c5)(N(C)C)CC4)cn3)c1)C2=O` [Example 295, 6-(3-(4-((4-(dimethylamino)-4-(3-hydroxyphenyl)piperidin-1-yl)methyl)-1H-pyrazol-1-yl)phenyl)-2-(ethylamino)-9-methyl-6,7,8,9-tetrahydro-5H-pyrimido[4,5-e] [1,4]diazepin-5-one], the figure is 100 to 500 nM; as for `CCNc1ncc2c(n1)N(C)CCN(c1cccc(-n3cnc(CN4CCC(c5cccc(O)c5)(N(C)C)CC4)c3)c1)C2=O` [Example 296, 6-(3-(4-((4-(dimethylamino)-4-(3-hydroxyphenyl)piperidin-1-yl)methyl)-1H-imidazol-1-yl)phenyl)-2-(ethylamino)-9-methyl-6,7,8,9-tetrahydro-5H-pyrimido[4,5-e][1,4]diazepin-5-one], 500 to 3000 nM.

Broadly, the Ki is the dissociation constant of the complex between target and ligand, obtained from inhibition or displacement.
